Data taken from BindingDB's records for doi:10.1021/jm970550g (Northwestern University, 1998).

Assay: Compound was tested for binding affinity against neuronal nitric oxide synthase(nNOS)
With `C=CCNC(=N)NCCCC(N)C(C)=O` (stereo not drawn) [1-Acetyl-4-(N'-allyl-guanidino)-butyl-ammonium] the Ki was 200 nM. Work on `CCNC(=N)NCCCC(N)C(=O)O` (stereo not drawn) [2-Amino-5-(N'-ethyl-guanidino)-pentanoic acid] yielded a Ki of 16000 nM. `C#CCNC(=N)NCCCC(N)C(=O)O` (stereo not drawn) [2-Amino-5-(N'-prop-2-ynyl-guanidino)-pentanoic acid] showed a Ki of 430 nM.
